According to the NIST ThermoML archive (doi:10.1016/j.fluid.2019.06.022):
Several values for one entry are separate records, joined by “and”; a condition that tells them apart may be missing. Identical values can stand only once.

Assay: xn = mol fraction of the nth substance listed
Details: Liquid; for mass density: Bellows volumetry; for viscosity: Falling or rolling sphere viscometry

C=CC [propene] + Cc1ccccc1
Details | mass density, x1 = 0.0787 | mass density, x1 = 0.3073 | viscosity, x1 = 0.0787 | viscosity, x1 = 0.3073
376.9 K, 3100 kPa | 760.8 kg/m3 | – | 0.253 mPa·s | –
376.9 K, 3200 kPa | 760.8 kg/m3 | – | 0.252 mPa·s | –
376.9 K, 3900 kPa | 762.5 kg/m3 | – | 0.26 mPa·s | –
376.9 K, 8400 kPa | 767 kg/m3 | – | 0.264 mPa·s | –
376.9 K, 8500 kPa | 767 kg/m3 | – | 0.267 mPa·s | –
376.9 K, 8600 kPa | 767 kg/m3 | – | 0.267 mPa·s | –
376.9 K, 8700 kPa | 767.3 kg/m3 | – | 0.269 mPa·s | –
376.9 K, 14300 kPa | 774.1 kg/m3 | – | 0.282 mPa·s | –
376.9 K, 14600 kPa | 774.1 kg/m3 | – | 0.283 mPa·s | –
376.9 K, 26800 kPa | 786.3 kg/m3 | – | 0.314 mPa·s | –
376.9 K, 27000 kPa | 786.3 kg/m3 | – | 0.312 mPa·s | –
376.9 K, 27200 kPa | 786.6 kg/m3 | – | 0.312 mPa·s | –
376.9 K, 27400 kPa | 786.6 kg/m3 | – | 0.317 mPa·s and 0.312 mPa·s | –
376.9 K, 27600 kPa | 786.6 kg/m3 | – | 0.317 mPa·s | –
376.9 K, 41000 kPa | 799.3 kg/m3 and 798.4 kg/m3 | – | 0.352 mPa·s and 0.349 mPa·s | –
376.9 K, 41200 kPa | 798.4 kg/m3 and 799.3 kg/m3 | – | 0.345 mPa·s and 0.353 mPa·s | –
376.9 K, 55500 kPa | 810.5 kg/m3 | – | 0.376 mPa·s | –
376.9 K, 55800 kPa | 810.5 kg/m3 | – | 0.386 mPa·s | –
376.9 K, 68600 kPa | 819.9 kg/m3 | – | 0.419 mPa·s | –
376.9 K, 68900 kPa | 819.9 kg/m3 | – | 0.418 mPa·s | –
440.5 K, 3600 kPa | – | 599.7 kg/m3 | – | 0.12 mPa·s and 0.121 mPa·s
440.5 K, 7500 kPa | – | 612.2 kg/m3 | – | 0.129 mPa·s
440.5 K, 7600 kPa | – | 612.2 kg/m3 | – | 0.129 mPa·s
440.5 K, 20300 kPa | – | 642.2 kg/m3 | – | 0.15 mPa·s
440.5 K, 37200 kPa | – | 669.5 kg/m3 | – | 0.176 mPa·s and 0.177 mPa·s
440.5 K, 37400 kPa | – | 669.5 kg/m3 | – | 0.174 mPa·s
440.5 K, 37500 kPa | – | 669.5 kg/m3 | – | 0.178 mPa·s
440.5 K, 50100 kPa | – | 683.9 kg/m3 | – | 0.195 mPa·s
440.5 K, 50200 kPa | – | 683.8 kg/m3 | – | 0.193 mPa·s
440.5 K, 68600 kPa | – | 703.5 kg/m3 | – | 0.221 mPa·s
440.5 K, 68700 kPa | – | 703.5 kg/m3 | – | 0.222 mPa·s
443 K, 3200 kPa | 691.9 kg/m3 | – | 0.152 mPa·s | –
443 K, 3300 kPa | 691.6 kg/m3 | – | 0.151 mPa·s | –
443 K, 10500 kPa | 706.3 kg/m3 | – | 0.17 mPa·s and 0.166 mPa·s | –
443 K, 15100 kPa | 714.5 kg/m3 | – | 0.178 mPa·s | –
443 K, 15300 kPa | 714.5 kg/m3 | – | 0.178 mPa·s | –
443 K, 27100 kPa | 732.1 kg/m3 | – | 0.201 mPa·s | –
443 K, 27200 kPa | 732.1 kg/m3 | – | 0.2 mPa·s and 0.201 mPa·s | –
443 K, 27300 kPa | 731.8 kg/m3 | – | 0.201 mPa·s | –
443 K, 37600 kPa | 745.3 kg/m3 | – | 0.221 mPa·s | –
443 K, 37800 kPa | 745.3 kg/m3 | – | 0.218 mPa·s | –
443 K, 47900 kPa | 756.2 kg/m3 | – | 0.243 mPa·s and 0.244 mPa·s | –
443 K, 64800 kPa | 772.1 kg/m3 | – | 0.271 mPa·s | –
443 K, 65000 kPa | 772.4 kg/m3 | – | 0.271 mPa·s | –
529.2 K, 35300 kPa | – | 593.8 kg/m3 | – | 0.119 mPa·s and 0.12 mPa·s
529.2 K, 49000 kPa | – | 619 kg/m3 and 619.1 kg/m3 | – | 0.132 mPa·s and 0.135 mPa·s
529.2 K, 68500 kPa | – | 647.6 kg/m3 | – | 0.156 mPa·s
529.2 K, 68600 kPa | – | 647.5 kg/m3 | – | 0.153 mPa·s
531.1 K, 7200 kPa | 599.1 kg/m3 | – | 0.091 mPa·s | –
531.1 K, 19200 kPa | 641.3 kg/m3 | – | 0.114 mPa·s | –
531.1 K, 19400 kPa | 641.1 kg/m3 | – | 0.113 mPa·s | –
531.1 K, 31900 kPa | 669.1 kg/m3 and 669.7 kg/m3 and 669.3 kg/m3 | – | 0.133 mPa·s and 0.134 mPa·s | –
531.1 K, 32000 kPa | 670.2 kg/m3 | – | 0.133 mPa·s | –
531.1 K, 32100 kPa | 670 kg/m3 | – | 0.131 mPa·s | –
531.1 K, 32200 kPa | 670.2 kg/m3 | – | 0.136 mPa·s | –
531.1 K, 41400 kPa | 685 kg/m3 | – | 0.148 mPa·s | –
531.1 K, 41500 kPa | 685 kg/m3 and 685.2 kg/m3 | – | 0.145 mPa·s and 0.148 mPa·s | –
531.1 K, 41600 kPa | 685.2 kg/m3 | – | 0.146 mPa·s | –
531.1 K, 53300 kPa | 702.3 kg/m3 and 701.5 kg/m3 | – | 0.165 mPa·s | –
531.1 K, 53400 kPa | 701.7 kg/m3 and 702.5 kg/m3 | – | 0.164 mPa·s and 0.165 mPa·s | –
531.1 K, 67100 kPa | 718.1 kg/m3 | – | 0.18 mPa·s | –
531.1 K, 67200 kPa | 718.6 kg/m3 | – | 0.179 mPa·s | –
